Measured values as given in patent US5248690A, “Method for treatment of neurodegenerative diseases” (R. J. Reynolds Tobacco Company, priority 1992, dated 1993).

Target: high affinity nicotinic receptors
Test: Inhibition of L-[3H]nicotine binding to mouse brain membrane preparations
Set-up: species or system Mice (DBA strain)
Conditions: 10 nM L-[3H]nicotine, 2 hr at 4° C., mouse brain membranes, Ki calculated from IC50 by method of Cheng et al.
Experimental: Mice (DBA strain) were maintained on a 12 hour light/dark cycle and were allowed free access to water and food supplied by Wayne Lab Blox, Madison, Wis. Animals used in the present studies were 60 to 90 days of age and weighed 20 to 25 g. Brain membrane preparations were obtained from pooled brain tissue of both males and females.
Mice were killed by cervical dislocation. Brains were removed and placed on an ice-cold platform. […] Protein was determined by the method of Lowry, et al., J. Biol. Chem., Vol. 193, pp. 265-275 (1951), using bovine serum albumin as the standard.
The binding of L-[^3 H]nicotine was measured using a modification of the method of Romano, et al., Science, Vol. 210, pp. 647-650 (1980) as described previously by Marks, et al., Mol. pharmacol., Vol. 30, pp. 427-436 (1986). The binding of L-[^3 H]nicotine was measured using a 2 hr. incubation at 4° C. […] Nonspecific binding was determined by inclusion of 10 μM nonradioactive nicotine in the incubations. The inhibition of L-[^3 H]nicotine binding by test compounds was determined by including one of eight different concentrations of the test compound in the incubation. […] Inhibition constants (Ki values) were calculated from the IC50 values using the method of Cheng, et al., Biochem. Pharmacol., Vol. 22, pp. 3099-3108 (1973). […]

`CN1CCCC1c1ccccc1` (racemic) [1-methyl-2-phenylpyrrolidine] showed a Ki of 3.5 µM.
